Values of other authors in patent publication US10300017B2, “Method and composition for treating cystitis” (Nanologix Research, Inc., priority 2012, dated 2019).

Experiments:
[1] = test system: interstitial cystitis; settings: 20 patients heparin 40,000 units, 20 patients 100 mg Elmiron, 80 mg lidocaine, 3 cc sodium bicarb
[2] = oral

Row | Substance | response to therapy (symptom relief), comparison of the two intravesical solutions [1] | fraction absorbed that reaches the circulation (administered orally) [%] | fraction of the administered dose recovered as intact drug in urine (mean) (oral dose) [%] | mean of an oral dose excreted in the urine (oral dose, mostly as desulfated and depolymerized metabolites) [%] | systemic side effects [2]
1 | heparin | no significant difference between the two solutions |  |  |  | 
2 | pentosan polysulfate [Elmiron®] | no significant difference between the two solutions | 6 | 0.14 | 6 | hair loss, GI intolerance, headache, rash, sleep disturbance, and vertigo
